Test results taken from patent publication US20200316100A1, “HALOALKYL FUCOSE-CONTAINING SELECTIN ANTAGONISTS” (GlycoMimetics, Inc., priority 2016, published 2020).

Target: T1, E-selectin/Ig chimera (Homo sapiens, UniProt P16581)
T1 sequence (P16581 22-556): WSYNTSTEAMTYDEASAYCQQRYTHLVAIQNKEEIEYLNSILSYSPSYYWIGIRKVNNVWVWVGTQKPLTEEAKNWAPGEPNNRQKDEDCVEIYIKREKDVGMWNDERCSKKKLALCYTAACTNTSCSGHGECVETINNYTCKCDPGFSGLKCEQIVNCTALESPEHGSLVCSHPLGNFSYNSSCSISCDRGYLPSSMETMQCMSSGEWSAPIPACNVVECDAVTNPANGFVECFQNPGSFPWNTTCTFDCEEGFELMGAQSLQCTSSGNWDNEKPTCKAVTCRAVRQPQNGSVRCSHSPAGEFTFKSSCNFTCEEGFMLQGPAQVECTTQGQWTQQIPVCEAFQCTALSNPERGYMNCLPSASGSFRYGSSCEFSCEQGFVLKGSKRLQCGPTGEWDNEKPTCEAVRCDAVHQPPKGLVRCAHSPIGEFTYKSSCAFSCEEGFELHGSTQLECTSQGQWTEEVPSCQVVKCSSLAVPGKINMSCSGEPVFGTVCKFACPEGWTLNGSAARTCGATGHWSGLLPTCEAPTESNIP
Test: E-Selectin Activity - Alternative Binding Assay (inhibition of sLea binding to immobilized E-selectin/Ig chimera)
Conditions: concentration required to inhibit binding of biotinylated sLea polyacrylamide/streptavidin-HRP conjugate to immobilized E-selectin by 50%; absorbance 450 nm
Protocol: E-selectin/Ig chimera was immobilized in 96 well microtiter plates by incubation at 37° C. for 2 hours. To reduce nonspecific binding, bovine serum albumin was added to each well and incubated at room temperature for 2 hours. The plate was washed and serial dilutions of the test compounds were added to the wells in the presence of conjugates of biotinylated, sLe^a polyacrylamide with streptavidin/horseradish peroxidase and incubated for 2 hours at room temperature.
To determine the amount of sLe^a hound to immobilized E-selectin after washing, the peroxidase substrate, 3,3′,5,5′ tetrametbylbenzidine (TMB) was added. After 3 minutes, the enzyme reaction was stopped by the addition of H3PO4, and the absorbance of light at a wavelength of 450 nm was determined.

IC50: 700 nM
SMILES: CCC1CCCC(OC2OC(CO)C(O)C(OC(CC3CCCCC3)C(=O)O)C2OC(=O)c2ccccc2)C1OC1OC(C(F)(F)F)C(O)C(O)C1O [Compound 75, sodium (5)-2-(((2R,3R,4S,5S,6R)-3-(benzoyloxy)-2-(((1R,2R,3S)-3-ethyl-2-(((2R,3S,4R,5S,6R)-3,4,5-trihydroxy-6-(trifluoromethyl)tetrahydro-2H-pyran-2-yl)oxy)cyclohexypoxy)-5-hydroxy-6-(hydroxymethyl)tetrahydro-2H-pyran-4-yl)oxy)-3-cyclohexylpropanoate]
